The values that follow come from patent US8481576B2 (Abbott GmbH & Co. KG, priority 2004, dated 2013).

The test deals with T1, h5-HT5A receptor (Homo sapiens, UniProt P47898).
T1 construct: expressed in transfected cells; host or cells: HEK293
As to the kind of experiment: [3H]5-CT binding assay h5-HT5A. The note with it: membranes from HEK293 cells expressing h5-HT5A, 2.5 nM [3H]5-CT; read-out: Binding affinity 5-HT5A (Ki). On the procedure:
1. [^3H]5-CT binding assay h5-HT5A
Membranes from HEK293-cells, which permanently express the h5-HT5A receptor gene, were incubated in 100 mM Tris-HCl-buffer (pH 7.7), containing 1 mM EDTA in the presence of 2.5 nM [^3H]5-CT (600 μl total volume). The total binding is defined as the binding which is observed when the membranes are incubated alone in the presence of the radioligand. The inhibition induced by the compound is determined by incubation of cell membranes in the presence of the radioligand, and of different concentrations of the compound of interest. Unspecific binding is defined by the binding of [^3H]5-CT, which is obtained by incubation of the membranes as for the total binding but in the presence of 10 μM methiothepine. Following an incubation of 75 minutes at 30° C. the membrane suspension is filtered through GF/B-filters, wrapped in 0.03% PEI, wherein a Skatron® harvest system is used. The radioactivity retained in the filter is quantified by liquid scintillation counting.
In both assays, different concentrations of the test substances are used, and the Ki or the IC50 values are determined.

pKi: −log10 of the molar value. Counter-ions that a name gives are not always drawn. Some results are limits rather than exact numbers.

T1 sequence (P47898 whole entry): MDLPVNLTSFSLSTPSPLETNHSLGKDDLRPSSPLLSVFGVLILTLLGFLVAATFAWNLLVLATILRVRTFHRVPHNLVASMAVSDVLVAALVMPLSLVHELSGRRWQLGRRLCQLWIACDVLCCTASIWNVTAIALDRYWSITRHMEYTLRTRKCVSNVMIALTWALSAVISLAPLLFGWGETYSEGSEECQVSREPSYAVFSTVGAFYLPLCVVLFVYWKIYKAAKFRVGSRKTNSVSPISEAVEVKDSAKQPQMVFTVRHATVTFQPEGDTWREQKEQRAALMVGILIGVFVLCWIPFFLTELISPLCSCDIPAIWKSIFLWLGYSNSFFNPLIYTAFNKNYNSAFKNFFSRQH

As to “2-(2-{[[(2,6-dimethoxybenzyl)amino](imino)methyl]amino}-1,3-thiazole-4-yl)-N-(2-methoxybenzyl)acetamide (2E)-But-2-endioate [Example 51]”, the pKi was above 7.30.
The figure for `COc1ccccc1CNC(=N)Nc1nccs1` [Example 1, N-(2-methoxybenzyl)-N′-1,3-thiazole-2-ylguanidine] is above 7.30; for `COc1cccc(OC)c1CNC(=N)Nc1nc(-c2ccccc2)cs1` [Example 2, N-(2,6-dimethoxybenzyl)-N′-(4-phenyl-1,3-thiazole-2-yl)guanidine] it is above 7.30.
Turning to `CCc1csc(NC(=N)NCc2c(OC)cccc2OC)n1` [Example 3, N-(2,6-dimethoxybenzyl)-N′-(4-ethyl-1,3-thiazole-2-yl)-guanidine], the pKi is above 7.30.
The figure for `Cc1ccc(C)c(CNC(=N)Nc2nccs2)c1` [Example 4, N-(2,5-dinnethylbenzyl)-N′-1,3-thiazole-2-ylguanidine hydrochloride] is 6.30 to 7.30.
The figure for `COc1cccc(OC)c1CNC(=N)Nc1nccs1` [Example 5, N-(2,6-dimethoxybenzyl)-N′-1,3-thiazole-2-ylguanidine] is above 7.30.
The figure for `COc1cccc(Cl)c1CNC(=N)Nc1nccs1` [Example 6, N-(2-chloro-6-methoxybenzyl)-N′-1,3-thiazole-2-ylguanidine hydrochloride] is above 7.30.
As to `N=C(NCc1ccccc1Cl)Nc1nccs1` [Example 7, N-(2-chlorobenzyl)-N′-1,3-thiazole-2-ylguanidine hydrochloride], the pKi was below 6.30.
Regarding `CCOc1ccccc1CNC(=N)Nc1nccs1` [Example 8, N-(2-ethoxybenzyl)-N′-1,3-thiazole-2-ylguanidine hydrochloride], the pKi was above 7.30.
The figure for `COc1cccc(F)c1CNC(=N)Nc1nccs1` [Example 9, N-(2-fluoro-6-methoxybenzyl)-N′-1,3-thiazole-2-ylguanidine] is above 7.30; for `Cc1ccccc1CNC(=N)Nc1nccs1` [Example 12, N-(2-methylbenzyl)-N′-1,3-thiazole-2-ylguandine] it is below 6.30; for `N=C(NCc1cccc(Cl)c1)Nc1nccs1` [Example 13, N-(3-chlorobenzyl)-N′-1,3-thiazole-2-ylguanidine hydrochloride] it is below 6.30.
The figure for `COc1cccc(CNC(=N)Nc2nccs2)c1` [Example 14, N-(3-methoxybenzyl)-N′-1,3-thiazole-2-ylguanidine hydrochloride] is 6.30 to 7.30.
The figure for `COc1ccc(CNC(=N)Nc2nccs2)cc1` [Example 15, N-(4-methoxybenzyl)-N′-1,3-thiazole-2-ylguanidine] is below 6.30; for `COc1ccccc1CCNC(=N)Nc1nccs1` [Example 16, N-[2-(2-methoxyphenyl)ethyl]-N′-1,3-thiazole-2-ylguanidine hydrochloride] it is below 6.30.
As for `N=C(NCc1ccccc1OCc1ccccc1)Nc1nccs1` [Example 17, N-[2-(benzyloxy)benzyl]-N′-1,3-thiazole-2-ylguanidine], the negative logarithm of the Ki (pKi) is 6.30 to 7.30.
The figure for `N=C(NCc1ccccc1C(F)(F)F)Nc1nccs1` [Example 18, N-1,3-thiazole-2-yl-N′[2-(trifluoromethyl)benzyl]guanidine] is below 6.30; for `COc1cccc(OC)c1CNC(=N)Nc1nc(-c2cc(C(F)(F)F)cc(C(F)(F)F)c2)cs1` [Example 19, N-{4-[3,5-bis(trifluoromethyl)phenyl]-1,3-thiazole-2-yl}-N′-(2,6-dimethoxybenzyl)guanidine hydrobromide] it is 6.30 to 7.30.
The figure for `COc1ccccc1C(=O)NC(=N)Nc1nccs1` [Example 20, N-[Imino(1,3-thiazole-2-ylamino)methyl]-2-methoxybenzamide] is below 6.30; for `COc1cccc(OC)c1CNC(=N)Nc1nc(-c2cc(Cl)ccc2Cl)cs1` [Example 21, N-[4-(2,5-dichlorophenyl)-1,3-thiazole-2-yl]-N′-(2,6-dimethoxybenzyl)guanidine hydrobromide] it is above 7.30.
As for `CC(=O)Nc1cccc(OCCCNC(=N)Nc2nccs2)c1` [Example 22, N-[3-(3-{[imino(1,3-thiazole-2-ylamino)methyl]amino}propoxy)phenyl]acetamide], the pKi is below 6.30.
Turning to `CC(=O)c1cccc(OCCCNC(=N)Nc2nccs2)c1` [Example 23, N-[3-(3-acetylphenoxy)propyl]-N′-1,3-thiazole-2-ylguanidine (2E)-But-2-endioate], the pKi was below 6.30.
The figure for `CNC(=Nc1nccs1)NCc1ccccc1OC` [Example 24, N-(2-methoxybenzyl)-N′-methyl-N″-1,3-thiazole-2-ylguanidine (2E)-But-2-endioate] is below 6.30.
Consider `CCNC(=Nc1nccs1)NCc1ccccc1OC` [Example 26, N-ethyl-N′-(2-methoxybenzyl)-N″-1,3-thiazole-2-ylguanidine (2E)-But-2-endioate], for which the pKi was below 6.30.
For `COc1cccc(OC)c1CNC(=N)Nc1nc2ccccc2s1` [Example 27, N-1,3-benzothiazole-2-yl-N′-(2,6-dimethoxybenzypguanidine (2E)-But-2-endioate], the pKi is above 7.30.
For `COc1ccccc1CNC(=N)Nc1nc2ccccc2s1` [Example 28, N-1,3-benzothiazole-2-yl-N′-(2-methoxybenzyl)guanidine (2E)-But-2-endioate], the pKi is 6.30 to 7.30.
Take `N=C(NCCOc1ccccc1Cl)Nc1nccs1` [Example 29, N-[2-(2-chlorophenoxy)ethyl]-N′-1,3-thiazole-2-ylguanidine (2E)-But-2-endioate]: the pKi is 6.30 to 7.30.
The figure for `COc1ccccc1CNC(=N)Nc1ccsc1` [Example 30, N-(2-methoxy-benzyl)-N′-thiophene-3-yl-guanidine acetate] is 6.30 to 7.30; for `COc1ccccc1CNC(=N)Nc1nc(-c2ccccc2)cs1` [Example 31, N-(2-methoxybenzyl)-N′-(4-phenyl-1,3-thiazole-2-yl)guanidine] it is 6.30 to 7.30; for `COc1cccc(OC)c1CNC(=N)Nc1nc(C)cs1` [Example 32, N-(2,6-dimethoxybenzyl)-N′-(4-methyl-1,3-thiazole-2-yl)guanidine] it is above 7.30.
`COc1ccccc1CNC(=N)Nc1nc(-c2ccc3ccccc3c2)cs1` [Example 33, N-(2-methoxybenzyl)-N′-[4-(2-naphthyl)-1,3-thiazole-2-yl]guanidine]: the pKi is above 7.30.
Turning to `COc1cccc(OC)c1CNC(=N)Nc1nc(-c2ccc3ccccc3c2)cs1` [Example 34, N-(2,6-dimethoxybenzyl)-N′-[4-(2-naphthyl)-1,3-thiazole-2-yl]guanidine], the pKi was above 7.30.
The figure for `COc1ccccc1CNC(=N)Nc1nc(-c2ccc(Cl)cc2)cs1` [Example 35, N-[4-(4-chlorophenyl)-1,3-thiazole-2-yl]-N′-(2-methoxybenzyl)guanidine] is below 6.30.
In the case of `COc1cccc(OC)c1CNC(=N)Nc1nc(C(C)(C)C)cs1` [Example 36, N-(4-tert-butyl-1,3-thiazole-2-yl)-N′-(2,6-dimethoxybenzyl)guanidine], the pKi is above 7.30.
For the compound `COc1ccccc1CNC(=N)Nc1nc(C(C)(C)C)cs1` [Example 37, N-(4-tert-butyl-1,3-thiazole-2-yl)-N′-(2-methoxybenzyl)guanidine (2E)-But-2-endioate], the pKi was 6.30 to 7.30.
For `COc1cccc(OC)c1CNC(=N)Nc1nc(-c2ccc(Cl)cc2)cs1` [Example 38, N-[4-(4-chlorophenyl)-1,3-thiazole-2-yl]-N′-(2,6-dimethoxybenzyl)guanidine], the pKi was 6.30 to 7.30.
On to `COc1ccccc1CNC(=N)Nc1nc(C)cs1` [Example 39, N-(2-methoxybenzyl)-N′-(4-methyl-1,3-thiazole-2-yl)guanidine (2E)-But-2-endioate], for which the pKi is above 7.30.
The figure for `COc1ccccc1CNC(=N)Nc1nc(C)c(C)s1` [Example 40] is above 7.30; for `COc1ccccc1CNC(=N)Nc1nc(-c2ccccn2)cs1` [Example 41, N-(2-methoxybenzyl)-N′-(4-pyridine-2-yl-1,3-thiazole-2-yl)guanidine] it is above 7.30; for `COc1cccc(OC)c1CNC(=N)Nc1nc(-c2ccccn2)cs1` [Example 42, N-(2,6-dimethoxybenzyl)-N′-(4-pyridine-2-yl-1,3-thiazole-2-yl)guanidine (2E)-But-2-endioate] it is above 7.30.
The figure for `COc1ccccc1CNC(=N)Nc1nc(-c2ccccc2Cl)cs1` [Example 43, N-[4-(2-chlorophenyl)-1,3-thiazole-2-yl]-N′-(2-methoxybenzyl)guanidine (2E)-But-2-endioate] is 6.30 to 7.30; for `COc1cccc(OC)c1CNC(=N)Nc1nc(-c2ccccc2Cl)cs1` [Example 44, N-[4-(2-chlorophenyl)-1,3-thiazole-2-yl]-N′-(2,6-dimethoxybenzyl)guanidine] it is above 7.30.
The figure for `COc1cccc(OC)c1CNC(=N)Nc1nc(-c2ccncc2)cs1` [Example 45, N-(2,6-dimethoxybenzyl)-N′-(4-pyridine-4-yl-1,3-thiazole-2-yl)guanidine] is above 7.30; for `COc1ccccc1CNC(=N)Nc1nc(-c2ccncc2)cs1` [Example 46, N-(2-methoxybenzyl)-N′-(4-pyridine-4-yl-1,3-thiazole-2-yl)guanidine] it is above 7.30.
